Results from the NIST ThermoML archive (doi:10.1016/j.tca.2006.10.005).

Test: molar heat capacity at constant pressure
Settings: 101.33 kPa, Crystal

O=C([O-])[O-].[Li+].[Li+] [lithium carbonate]
Settings	molar heat capacity at constant pressure [J/K/mol]
303.15 K	99.89
323.15 K	100.98
343.15 K	107.69
363.15 K	111.21
383.15 K	115.61
403.15 K	116.88
443.15 K	120.05
483.15 K	129.08
533.15 K	132.77
563.15 K	137.29
